Experimental data from PMC3202585, “Venom of Parasitoid, Pteromalus puparum, Suppresses Host, Pieris rapae, Immune Promotion by Decreasing Host C-Type Lectin Gene Expression” (PLoS ONE, 2011).

Target: T1, Pr-CTL (Pieris rapae, UniProt G5CJE6)
T1 construct: two tandem CRDs (residues 41-151 and 184-302)
T1 sequence (G5CJE6 20-313): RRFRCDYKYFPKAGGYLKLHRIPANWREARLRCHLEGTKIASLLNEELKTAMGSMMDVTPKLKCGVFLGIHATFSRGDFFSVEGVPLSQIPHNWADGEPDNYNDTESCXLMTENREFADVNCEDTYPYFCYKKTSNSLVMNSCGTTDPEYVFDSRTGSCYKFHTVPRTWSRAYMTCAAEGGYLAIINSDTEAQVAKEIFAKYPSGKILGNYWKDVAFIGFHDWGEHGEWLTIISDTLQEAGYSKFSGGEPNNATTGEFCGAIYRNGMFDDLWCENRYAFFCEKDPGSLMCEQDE
Assay: carbohydrate binding assay (data not shown)
Settings: calcium-dependent, described as agglutination of carbohydrates

| SMILES | carbohydrate binding assay (data not shown) |
| --- | --- |
| OC[C@H]1OC(O)[C@H](O)[C@@H](O)[C@H]1O (some centres unmarked) [galactose] | agglutination of different kind of carbohydrates, such as mannose, galactose and peptidoglycan (data not shown) |
| OC[C@H]1OC(O)[C@@H](O)[C@@H](O)[C@@H]1O (some centres unmarked) [mannose] | recombinant Pr-CTL possesses the calcium-dependent agglutination of different kind of carbohydrates, such as mannose |
